Experimental data taken from patent US20050014215A1, “Method and medium for the detecting/identifying microorganisms with esterase and/or r osidase and/or peptidase and/or sulfatase and/or phosphatase activity” (priority 2000, published 2005).
Like-named read-outs stand apart in the source and are kept apart here.

Assay: Substrate solubility with different FASE (Example 8)
Assay type: physicochemical
Method: Different stock solutions of substrate are prepared in DMSO in the presence of Tween® 20, Tween® 80 (polyethoxylated sorbitan monooleate), Tween® 60 (polyethoxylated sorbitan monostearate) or Tween® 65 (polyethoxylated sorbitan tristearate). A volume corresponding to a final concentration of 500 mg/l of substrate is then added to a supercooled gelled medium, namely MacConkey medium.

Substance | substrate solubility (40% DMSO, 60% Tween) | substrate solubility
polyethoxylated sorbitan monolaurate containing 20 units of ethylene oxide (EO) [TWEEN® 20] | good substrate solubility | 
polyethoxylated sorbitan monooleate (20 EO) [TWEEN® 80] |  | good substrate solubility
polyethoxylated sorbitan monostearate (20 EO) [TWEEN® 60] |  | good substrate solubility
